Results: patent US10647747B2, “Cyclosporin derivatives and uses thereof” (S&T Global Inc., priority 2010, dated 2020)
Read-outs that look alike come from different tables or passages of the source. *1 amine or outer side, *2 acyl side, *3 side chain or, on linkers, in order; H or OH if unused. Where a SMILES comes first, the peptide text is derived from it. [ ]: non-standard residue; d: D form. ξ: configuration not given here. NMe(dihydroBmt) = CCCC[C@@H](C)[C@@H](O)[C@H](NC)C(=O)O; X12 = COc1ccc(COC(C)(C)CC(C(=O)[*:2])N(C)[*:1])cc1; MeBmt = C/C=C/C[C@@H](C)[C@@H](O)[C@H](NC)C(=O)O; X10 = CN(C(CC(C)(C)OCc1ccccc1)C(=O)[*:2])[*:1]; X11 = CN([C@@H](CC(C)(C)OCCO)C(=O)[*:2])[*:1]; X6 = CCN(CC)CCS[C@H](C(=O)[*:2])N(C)[*:1]; X3 = CC=CCC(C)C(O)C(C(=O)[*:2])N(C)[*:1]; X9 = C=CCOC(C)(C)CC(C(=O)[*:2])N(C)[*:1]; X13 = CCN(CC)CCCSC(C(=O)[*:2])N(C)[*:1]; X7 = CN(C(SCCCN1CCOCC1)C(=O)[*:2])[*:1]; NMeIle(3ξ) = CCC(C)[C@H](NC)C(=O)O; NMeI = CC[CH](C)[CH](NC)C(=O)O; NMeL = CN[CH](CC(C)C)C(=O)O; NMeV = CN[CH](C(=O)O)C(C)C; Abu = CC[CH](N)C(=O)O; Sar = CNCC(=O)O

Tested on: HCV replicon in cell line ET (luc-ubi-neo/ET), Huh7 human hepatoma
Experiment: HCV subgenomic replicon assay, luciferase end point
Assay type: cell-based
Settings: read-out: Antiviral activity EC50
[1] = Table 13, HCV replicon luciferase
[2] = HCV subgenomic replicon, cell line ET (luc-ubi-neo/ET) Huh7, luciferase end point
[3] = Table 12, HCV replicon luciferase
[4] = Table 16, HCV replicon luciferase

Q: With `C/C=C/C[C@@H](C)[C@@H](O)[C@H]1C(=O)N[C@@H](CC)C(=O)N(C)CC(=O)N(C)[C@@H](CC(C)(C)OCSC)C(=O)N[C@@H](C(C)C)C(=O)N(C)[C@@H](CC(C)C)C(=O)N[C@@H](C)C(=O)N[C@H](C)C(=O)N(C)[C@@H](CC(C)C)C(=O)N(C)[C@@H](CC(C)C)C(=O)N(C)[C@@H](C(C)C)C(=O)N1C` [[(γ-Methylthio)methoxy-N-MeLeu]-4-cyclospori] as the compound, how does the EC50 [1] read?
A: 400 nM

Q: How did the EC50 [2] turn out when `C/C=C/C[C@@H](C)[C@@H](O)[C@H]1C(=O)N[C@@H](CC)C(=O)N(C)[C@H](CSCCCN(CC)CC)C(=O)N(C)[C@@H](CC(C)(C)O)C(=O)N[C@@H](C(C)C)C(=O)N(C)[C@@H](CC(C)C)C(=O)N[C@@H](C)C(=O)N[C@H](C)C(=O)N(C)[C@@H](CC(C)C)C(=O)N(C)[C@@H](CC(C)C)C(=O)N(C)[C@@H](C(C)C)C(=O)N1C` was run?
A: 80 nM

Q: “(S)-2-(N,N-Diethylamino)ethylthio-Sar]-3-[N-MeIle]-4-cyclosporin” was tested. Which EC50 [3] did it give?
A: 40 nM

Q: How did the EC50 [1] turn out when `CCCC[C@@H](C)[C@@H](O)[C@H]1C(=O)N[C@@H](CC)C(=O)N(C)CC(=O)N(C)[C@@H](CC(C)(C)OCCO)C(=O)N[C@@H](C(C)C)C(=O)N(C)[C@@H](CC(C)C)C(=O)N[C@@H](C)C(=O)N[C@H](C)C(=O)N(C)[C@@H](CC(C)C)C(=O)N(C)[C@@H](CC(C)C)C(=O)N(C)[C@@H](C(C)C)C(=O)N1C` [[γ-(2-Hydroxyethoxy)-N-MeLeu]-4-dihydrocyclosporin] (cyclo(A[dA][NMeL][NMeL][NMeV][NMe(dihydroBmt)][Abu][Sar][X11]V[NMeL])) was run?
A: 430 nM

Q: With `CC=CCC(C)C(O)C1C(=O)NC(CC)C(=O)N(C)C(CSCCN(C)C)C(=O)N(C)C(CC(C)(C)OC)C(=O)NC(C(C)C)C(=O)N(C)C(CC(C)C)C(=O)NC(C)C(=O)NC(C)C(=O)N(C)C(CC(C)C)C(=O)N(C)C(CC(C)C)C(=O)N(C)C(C(C)C)C(=O)N1C` (centres unmarked) as the compound, how does the EC50 [2] read?
A: 100 nM

Q: `CC=CCC(C)C(O)C1C(=O)NC(CC)C(=O)N(C)C(CSCCCN2CCN(C(C)C)CC2)C(=O)N(C)C(CC(C)(C)O)C(=O)NC(C(C)C)C(=O)N(C)C(CC(C)C)C(=O)NC(C)C(=O)NC(C)C(=O)N(C)C(CC(C)C)C(=O)N(C)C(CC(C)C)C(=O)N(C)C(C(C)C)C(=O)N1C` (centres unmarked) was tested. Which EC50 [4] did it give?
A: 50 nM

Q: For `CC=CCC(C)C(O)C1C(=O)NC(CC)C(=O)N(C)C(SCCCN2CCOCC2)C(=O)N(C)C(CC(C)(C)OCc2ccc(OC)cc2)C(=O)NC(C(C)C)C(=O)N(C)C(CC(C)C)C(=O)NC(C)C(=O)NC(C)C(=O)N(C)C(CC(C)C)C(=O)N(C)C(CC(C)C)C(=O)N(C)C(C(C)C)C(=O)N1C` (centres unmarked) (cyclo([X3][Abu][X7][X12]V[NMeL]AA[NMeL][NMeL][NMeV]); configuration not given here), which EC50 [1] is on record?
A: 280 nM

Q: How did the EC50 (Hepatitis C virus, Huh-7, Table 14, HCV replicon luciferase) turn out when `C/C=C/C[C@@H](C)[C@@H](O)[C@H]1C(=O)N[C@@H](CC)C(=O)N(C)[C@H](CSCCCN2CCOCC2)C(=O)N(C)[C@@H](CC(C)(C)O)C(=O)N[C@@H](C(C)C)C(=O)N(C)[C@@H](CC(C)C)C(=O)N[C@@H](C)C(=O)N[C@H](C)C(=O)N(C)[C@@H](CC(C)C)C(=O)N(C)[C@@H](CC(C)C)C(=O)N(C)[C@@H](C(C)C)C(=O)N1C` was run?
A: 20 nM

Q: With `C/C=C/C[C@@H](C)[C@@H](O)[C@H]1C(=O)N[C@@H](CC)C(=O)N(C)[C@@H](COCCN(CC)CC)C(=O)N(C)[C@@H](CC(C)(C)O)C(=O)N[C@@H](C(C)C)C(=O)N(C)[C@@H](CC(C)C)C(=O)N[C@@H](C)C(=O)N[C@H](C)C(=O)N(C)[C@@H](CC(C)C)C(=O)N(C)[C@@H](CC(C)C)C(=O)N(C)[C@@H](C(C)C)C(=O)N1C` as the compound, how does the EC50 (Table 14, HCV replicon luciferase) read?
A: 50 nM

Q: With `C/C=C/C[C@@H](C)[C@@H](O)[C@H]1C(=O)N[C@@H](CC)C(=O)N(C)[C@H](SCCN(CC)CC)C(=O)N(C)[C@@H](C(C)CC)C(=O)N[C@@H](C(C)C)C(=O)N(C)[C@@H](CC(C)C)C(=O)N[C@@H](C)C(=O)N[C@H](C)C(=O)N(C)[C@@H](CC(C)C)C(=O)N(C)[C@@H](CC(C)C)C(=O)N(C)[C@@H](C(C)C)C(=O)N1C` (stereo partly drawn) [(R)-2-(N,N-Diethylamino)ethylthio-Sar]-3-[N-MeIle]-4-cyclosporin] (cyclo(A[dA][NMeL][NMeL][NMeV][MeBmt][Abu][X6][NMeIle(3ξ)]V[NMeL])) as the compound, how does the EC50 [3] read?
A: 1870 nM

Q: How did the EC50 [1] turn out when `C=CCOC(C)(C)CC1C(=O)NC(C(C)C)C(=O)N(C)C(CC(C)C)C(=O)NC(C)C(=O)NC(C)C(=O)N(C)C(CC(C)C)C(=O)N(C)C(CC(C)C)C(=O)N(C)C(C(C)C)C(=O)N(C)C(C(O)C(C)CC=CC)C(=O)NC(CC)C(=O)N(C)C(SCCCN2CCOCC2)C(=O)N1C` [[(S)-3-(N-Morpholino)propylthio-Sar]-3-[(γ-allyloxy)-N-MeLeu]-4-cyclosporin] (cyclo([X3][Abu][X7][X9]V[NMeL]AA[NMeL][NMeL][NMeV]); configuration not given here) was run?
A: 150 nM

Q: Which EC50 [2] does the source give for `CC=CCC(C)C(O)C1C(=O)NC(CC)C(=O)N(C)C(SCCCN(CC)CC)C(=O)N(C)C(C(C)C)C(=O)NC(C(C)C)C(=O)N(C)C(CC(C)C)C(=O)NC(C)C(=O)NC(C)C(=O)N(C)C(CC(C)C)C(=O)N(C)C(CC(C)C)C(=O)N(C)C(C(C)C)C(=O)N1C` [[(S)-3-(N,N-Diethylamino)propylthio-Sar]-3-[N-MeVal]-4-cyclosporin] (cyclo([X3][Abu][X13][NMeV]V[NMeL]AA[NMeL][NMeL][NMeV]); configuration not given here) here?
A: 70 nM

Q: With `CC=CCC(C)C(O)C1C(=O)NC(CC)C(=O)N(C)C(CSCCCN2CCN(CCC)CC2)C(=O)N(C)C(CC(C)(C)O)C(=O)NC(C(C)C)C(=O)N(C)C(CC(C)C)C(=O)NC(C)C(=O)NC(C)C(=O)N(C)C(CC(C)C)C(=O)N(C)C(CC(C)C)C(=O)N(C)C(C(C)C)C(=O)N1C` (centres unmarked) as the compound, how does the EC50 [4] read?
A: 50 nM

Q: With `CC=CCC(C)C(O)C1C(=O)NC(CC)C(=O)N(C)C(COCCN2CCCC2)C(=O)N(C)C(CC(C)(C)O)C(=O)NC(C(C)C)C(=O)N(C)C(CC(C)C)C(=O)NC(C)C(=O)NC(C)C(=O)N(C)C(CC(C)C)C(=O)N(C)C(CC(C)C)C(=O)N(C)C(C(C)C)C(=O)N1C` [[(R)-(2-(N-Pyrrolidino)ethoxy)methyl-Sar]-3-[(γ-hydroxy)-N-MeLeu]-4-cyclosporin] as the compound, how does the EC50 [2] read?
A: 200 nM

Q: Which EC50 [1] does the source give for `CC=CCC(C)C(O)C1C(=O)NC(CC)C(=O)N(C)C(SCCCN2CCOCC2)C(=O)N(C)C(CC(C)(C)OCc2ccccc2)C(=O)NC(C(C)C)C(=O)N(C)C(CC(C)C)C(=O)NC(C)C(=O)NC(C)C(=O)N(C)C(CC(C)C)C(=O)N(C)C(CC(C)C)C(=O)N(C)C(C(C)C)C(=O)N1C` [[(S)-(3-(N-Morpholino)propylthio-Sar]-3-[(γ-benzyloxy)-N-MeLeu]-4-cyclosporin] (cyclo([X3][Abu][X7][X10]V[NMeL]AA[NMeL][NMeL][NMeV]); configuration not given here) here?
A: 280 nM

Q: Which EC50 [2] does the source give for `CC=CCC(C)C(O)C1C(=O)NC(CC)C(=O)N(C)C(SCCCN(CC)CC)C(=O)N(C)C(C(C)CC)C(=O)NC(C(C)C)C(=O)N(C)C(CC(C)C)C(=O)NC(C)C(=O)NC(C)C(=O)N(C)C(CC(C)C)C(=O)N(C)C(CC(C)C)C(=O)N(C)C(C(C)C)C(=O)N1C` [[(S)-3-(N,N-Diethylamino)propylthio-Sar]-3-[N-MeIle]-4-cyclosporin] (cyclo([X3][Abu][X13][NMeI]V[NMeL]AA[NMeL][NMeL][NMeV]); configuration not given here) here?
A: 80 nM

Q: For `CC=CCC(C)C(O)C1C(=O)NC(CC)C(=O)N(C)C(SCCNCC(C)(C)C)C(=O)N(C)C(CC(C)C)C(=O)NC(C(C)C)C(=O)N(C)C(CC(C)C)C(=O)NC(C)C(=O)NC(C)C(=O)N(C)C(CC(C)C)C(=O)N(C)C(CC(C)C)C(=O)N(C)C(C(C)C)C(=O)N1C` [(S)-2-(N-neo-Pentylamino)ethylthio-Sar]-3-cyclosporin], which EC50 [3] is on record?
A: 230 nM
